From ChEMBL document CHEMBL1201862, “PubChem BioAssay data set” (2004)
Calls of active or inactive are those of the source.

Tests used:
Type in all cases: functional
[1] = biological target: Vascular endothelial growth factor receptor 1 (Homo sapiens, UniProt P17948);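 note: measured within a kinome-wide profiling panel, FLT1 as the panel member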
[2] = biological target: Mitogen-activated protein kinase 8 (Homo sapiens, UniProt P45983);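 note: value comes from one member of a kinome-wide kinase profiling panel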
Sequence of Mitogen-activated protein kinase 8 (P45983 whole entry): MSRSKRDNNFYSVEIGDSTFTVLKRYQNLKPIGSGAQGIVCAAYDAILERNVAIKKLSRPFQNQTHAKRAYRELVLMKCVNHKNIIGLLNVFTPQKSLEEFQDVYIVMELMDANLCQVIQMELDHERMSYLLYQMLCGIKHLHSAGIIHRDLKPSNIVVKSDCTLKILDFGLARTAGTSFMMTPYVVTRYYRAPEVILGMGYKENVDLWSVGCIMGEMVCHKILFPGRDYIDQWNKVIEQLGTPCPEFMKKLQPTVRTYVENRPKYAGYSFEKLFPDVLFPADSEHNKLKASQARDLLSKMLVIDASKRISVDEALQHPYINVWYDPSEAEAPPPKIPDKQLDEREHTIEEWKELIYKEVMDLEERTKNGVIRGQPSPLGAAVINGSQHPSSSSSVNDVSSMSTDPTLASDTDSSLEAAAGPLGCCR

[3] = biological target: BDNF/NT-3 growth factors receptor (Homo sapiens, UniProt Q16620);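 note: NTRK2 measured as one member of a broad kinome-wide kinase profiling panel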
[4] = biological target: Insulin-like growth factor 1 receptor (Homo sapiens, UniProt P08069); assay: Navigating the Kinome. Panel member name: IGF1R
[5] = biological target: Ribosomal protein S6 kinase alpha-3 (Homo sapiens, UniProt P51812);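 note: measured within a kinome-wide profiling panel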
[6] = biological target: Serine/threonine-protein kinase 3 (Homo sapiens, UniProt Q13188);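 note: measured as one member of a kinome-wide kinase panel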
Sequence of Serine/threonine-protein kinase 3 (Q13188 whole entry): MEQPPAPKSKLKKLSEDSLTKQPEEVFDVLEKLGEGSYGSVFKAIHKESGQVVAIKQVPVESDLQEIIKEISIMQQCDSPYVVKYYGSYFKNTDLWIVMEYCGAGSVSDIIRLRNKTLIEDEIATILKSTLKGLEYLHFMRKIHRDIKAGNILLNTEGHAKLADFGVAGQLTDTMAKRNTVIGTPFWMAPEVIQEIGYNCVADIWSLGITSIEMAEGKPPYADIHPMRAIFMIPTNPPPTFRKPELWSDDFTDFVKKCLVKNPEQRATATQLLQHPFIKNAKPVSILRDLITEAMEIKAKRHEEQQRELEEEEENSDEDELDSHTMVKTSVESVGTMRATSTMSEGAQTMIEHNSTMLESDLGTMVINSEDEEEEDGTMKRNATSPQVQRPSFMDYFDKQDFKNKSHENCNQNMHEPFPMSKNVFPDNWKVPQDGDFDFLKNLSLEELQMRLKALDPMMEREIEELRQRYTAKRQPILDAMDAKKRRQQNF

[7] = biological target: Tyrosine-protein kinase Fyn (Homo sapiens, UniProt P06241)
[8] = biological target: 5'-AMP-activated protein kinase catalytic subunit alpha-1 (Homo sapiens, UniProt Q13131)
[9] = biological target: Serine/threonine-protein kinase PAK 4 (Homo sapiens, UniProt O96013);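 note: value obtained within a kinome profiling panel in which PAK4 was one of the panel members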
[10] = biological target: Death-associated protein kinase 3 (Homo sapiens, UniProt O43293);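 note: measured as one member of a kinome-wide profiling panel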
[11] = biological target: Mitogen-activated protein kinase 9 (Homo sapiens, UniProt P45984);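 note: value from a kinome panel profiling assay, MAPK9 panel entry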
[12] = biological target: Receptor tyrosine-protein kinase erbB-4 (Homo sapiens, UniProt Q15303);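 note: ERBB4 member of a kinome-wide kinase profiling panel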
[13] = biological target: Dual specificity tyrosine-phosphorylation-regulated kinase 1A (Homo sapiens, UniProt Q13627);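 note: measured against DYRK1A as one member of a broad kinome profiling panel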
[14] = biological target: Tyrosine-protein kinase ABL1 (Homo sapiens, UniProt P00519)
Aurora kinase B = Aurora kinase B (Homo sapiens, UniProt Q96GD4)
Sequence of Aurora kinase B (Q96GD4 whole entry): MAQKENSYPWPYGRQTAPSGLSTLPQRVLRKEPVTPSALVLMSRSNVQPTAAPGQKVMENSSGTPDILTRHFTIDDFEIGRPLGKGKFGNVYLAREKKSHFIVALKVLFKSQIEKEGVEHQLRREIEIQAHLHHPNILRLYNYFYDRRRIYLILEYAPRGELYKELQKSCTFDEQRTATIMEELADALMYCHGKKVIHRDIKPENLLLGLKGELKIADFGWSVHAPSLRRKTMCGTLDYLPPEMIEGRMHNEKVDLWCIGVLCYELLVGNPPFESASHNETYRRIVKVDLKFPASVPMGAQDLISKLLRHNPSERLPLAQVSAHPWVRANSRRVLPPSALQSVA

[15] = biological target: Rho-associated protein kinase 1 (Homo sapiens, UniProt Q13464);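 note: measured within a broad kinome-wide panel profiling many kinases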
[16] = biological target: cAMP-dependent protein kinase catalytic subunit alpha (Homo sapiens, UniProt P17612)
[17] = biological target: Tyrosine-protein kinase JAK2 (Homo sapiens, UniProt O60674);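 note: JAK2 tested as one member of a kinase panel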
Sequence of Tyrosine-protein kinase JAK2 (O60674 whole entry): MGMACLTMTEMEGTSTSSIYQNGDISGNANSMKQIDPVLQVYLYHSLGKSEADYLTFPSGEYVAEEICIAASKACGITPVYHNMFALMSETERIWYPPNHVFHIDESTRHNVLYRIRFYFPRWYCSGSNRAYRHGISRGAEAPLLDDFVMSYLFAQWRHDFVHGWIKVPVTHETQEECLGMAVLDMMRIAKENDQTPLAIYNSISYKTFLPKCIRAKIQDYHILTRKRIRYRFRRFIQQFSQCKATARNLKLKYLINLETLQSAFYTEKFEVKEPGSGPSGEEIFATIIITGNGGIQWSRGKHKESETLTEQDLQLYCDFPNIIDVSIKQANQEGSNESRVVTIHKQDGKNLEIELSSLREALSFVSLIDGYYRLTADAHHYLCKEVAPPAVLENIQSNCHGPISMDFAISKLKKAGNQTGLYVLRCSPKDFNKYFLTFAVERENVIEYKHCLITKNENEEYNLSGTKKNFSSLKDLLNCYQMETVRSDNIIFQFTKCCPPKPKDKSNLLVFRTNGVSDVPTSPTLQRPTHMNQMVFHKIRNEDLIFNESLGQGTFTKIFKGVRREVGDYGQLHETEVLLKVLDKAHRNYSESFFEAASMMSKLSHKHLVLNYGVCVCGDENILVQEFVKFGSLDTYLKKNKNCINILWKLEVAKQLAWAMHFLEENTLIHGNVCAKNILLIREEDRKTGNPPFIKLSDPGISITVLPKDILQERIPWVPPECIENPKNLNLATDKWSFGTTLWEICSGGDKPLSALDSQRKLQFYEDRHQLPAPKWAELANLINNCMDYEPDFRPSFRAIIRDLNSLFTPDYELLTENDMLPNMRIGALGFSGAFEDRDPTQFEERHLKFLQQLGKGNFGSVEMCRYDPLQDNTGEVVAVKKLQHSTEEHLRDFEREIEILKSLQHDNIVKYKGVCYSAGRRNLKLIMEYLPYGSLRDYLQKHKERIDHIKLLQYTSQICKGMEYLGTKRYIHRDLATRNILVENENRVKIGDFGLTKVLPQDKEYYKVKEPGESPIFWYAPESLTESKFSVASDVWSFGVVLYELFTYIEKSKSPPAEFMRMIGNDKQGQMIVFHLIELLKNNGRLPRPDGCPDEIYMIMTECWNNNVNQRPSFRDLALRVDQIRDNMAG

[18] = biological target: Vascular endothelial growth factor receptor 2 (Homo sapiens, UniProt P35968)
Sequence of Vascular endothelial growth factor receptor 2 (P35968 whole entry): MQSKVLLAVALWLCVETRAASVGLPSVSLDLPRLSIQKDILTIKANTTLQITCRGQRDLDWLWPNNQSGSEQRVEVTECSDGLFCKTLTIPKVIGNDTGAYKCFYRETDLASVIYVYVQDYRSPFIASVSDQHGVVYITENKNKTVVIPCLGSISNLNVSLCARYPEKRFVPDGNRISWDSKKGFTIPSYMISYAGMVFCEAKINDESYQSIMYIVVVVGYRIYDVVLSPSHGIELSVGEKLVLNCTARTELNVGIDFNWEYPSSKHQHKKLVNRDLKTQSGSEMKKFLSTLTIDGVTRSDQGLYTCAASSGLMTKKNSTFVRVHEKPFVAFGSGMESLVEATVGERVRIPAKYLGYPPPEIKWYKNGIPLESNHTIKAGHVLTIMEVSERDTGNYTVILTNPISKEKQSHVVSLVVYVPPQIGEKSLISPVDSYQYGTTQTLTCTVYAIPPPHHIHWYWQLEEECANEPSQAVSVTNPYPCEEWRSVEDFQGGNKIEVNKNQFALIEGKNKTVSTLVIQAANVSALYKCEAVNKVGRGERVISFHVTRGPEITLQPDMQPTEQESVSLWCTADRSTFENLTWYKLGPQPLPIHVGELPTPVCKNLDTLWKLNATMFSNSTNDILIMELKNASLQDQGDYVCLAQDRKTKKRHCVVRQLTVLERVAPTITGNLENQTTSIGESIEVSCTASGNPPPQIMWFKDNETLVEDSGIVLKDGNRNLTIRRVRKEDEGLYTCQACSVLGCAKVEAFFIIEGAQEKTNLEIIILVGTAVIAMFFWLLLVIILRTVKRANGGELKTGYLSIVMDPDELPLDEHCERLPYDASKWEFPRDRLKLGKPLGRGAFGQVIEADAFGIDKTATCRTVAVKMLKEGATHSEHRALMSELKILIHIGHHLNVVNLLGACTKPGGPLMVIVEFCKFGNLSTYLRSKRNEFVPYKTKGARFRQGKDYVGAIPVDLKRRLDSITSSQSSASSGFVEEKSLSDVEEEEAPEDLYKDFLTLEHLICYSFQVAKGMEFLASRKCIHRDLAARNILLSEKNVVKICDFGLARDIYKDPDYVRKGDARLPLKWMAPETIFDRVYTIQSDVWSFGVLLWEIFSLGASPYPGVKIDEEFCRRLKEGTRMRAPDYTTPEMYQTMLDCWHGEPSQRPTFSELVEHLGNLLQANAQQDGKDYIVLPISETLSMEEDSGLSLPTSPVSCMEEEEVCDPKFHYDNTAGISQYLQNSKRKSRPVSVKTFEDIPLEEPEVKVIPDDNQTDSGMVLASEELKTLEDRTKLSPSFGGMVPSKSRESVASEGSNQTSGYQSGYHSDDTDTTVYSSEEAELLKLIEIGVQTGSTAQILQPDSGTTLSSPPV

[19] = biological target: Tyrosine-protein kinase JAK3 (Homo sapiens, UniProt P52333)
[20] = biological target: Macrophage colony-stimulating factor 1 receptor (Homo sapiens, UniProt P07333);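 note: value comes from the Navigating the Kinome screening panel, CSF1R member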
[21] = biological target: High affinity nerve growth factor receptor (Homo sapiens, UniProt P04629);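 note: NTRK1 tested as one member of a kinome-wide profiling panel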
[22] = biological target: Serine/threonine-protein kinase pim-2 (Homo sapiens, UniProt Q9P1W9);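 note: value comes from a broad kinase panel profiling study in which PIM2 was one of the panel members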
Aurora kinase A = Aurora kinase A (Homo sapiens, UniProt O14965);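 note: value from the Navigating the Kinome kinase panel profiling, panel entry STK6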
Sequence of Aurora kinase A (O14965 whole entry): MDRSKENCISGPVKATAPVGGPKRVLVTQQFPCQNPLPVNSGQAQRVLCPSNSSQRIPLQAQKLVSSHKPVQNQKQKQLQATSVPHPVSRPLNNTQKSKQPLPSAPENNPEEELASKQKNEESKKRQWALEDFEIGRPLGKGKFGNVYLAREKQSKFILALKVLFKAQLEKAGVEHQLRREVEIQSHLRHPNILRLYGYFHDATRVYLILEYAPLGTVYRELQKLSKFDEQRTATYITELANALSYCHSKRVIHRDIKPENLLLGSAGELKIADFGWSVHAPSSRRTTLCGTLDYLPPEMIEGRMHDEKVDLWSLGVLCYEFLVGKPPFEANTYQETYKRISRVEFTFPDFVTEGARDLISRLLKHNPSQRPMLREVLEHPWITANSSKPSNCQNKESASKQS

[23] = biological target: Serine/threonine-protein kinase pim-1 (Homo sapiens, UniProt P11309)
Sequence of Serine/threonine-protein kinase pim-1 (P11309 whole entry): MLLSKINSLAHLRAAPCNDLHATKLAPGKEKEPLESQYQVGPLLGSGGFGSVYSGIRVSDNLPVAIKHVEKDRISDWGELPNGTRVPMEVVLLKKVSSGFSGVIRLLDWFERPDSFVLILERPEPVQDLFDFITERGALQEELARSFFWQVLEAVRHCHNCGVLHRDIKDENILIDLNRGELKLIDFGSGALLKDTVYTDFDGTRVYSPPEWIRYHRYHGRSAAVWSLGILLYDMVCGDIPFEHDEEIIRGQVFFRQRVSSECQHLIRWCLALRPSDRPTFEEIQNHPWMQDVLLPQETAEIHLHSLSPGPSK

[24] = biological target: Fibroblast growth factor receptor 1 (Homo sapiens, UniProt P11362)
[25] = biological target: RAC-alpha serine/threonine-protein kinase (Homo sapiens, UniProt P31749);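 note: AKT1 affinity measured as one member of a kinome-wide kinase profiling panel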
[26] = biological target: Glycogen synthase kinase-3 beta (Homo sapiens, UniProt P49841);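 note: value comes from a broad kinome profiling panel, with GSK3B as the panel member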
Sequence of Glycogen synthase kinase-3 beta (P49841 whole entry): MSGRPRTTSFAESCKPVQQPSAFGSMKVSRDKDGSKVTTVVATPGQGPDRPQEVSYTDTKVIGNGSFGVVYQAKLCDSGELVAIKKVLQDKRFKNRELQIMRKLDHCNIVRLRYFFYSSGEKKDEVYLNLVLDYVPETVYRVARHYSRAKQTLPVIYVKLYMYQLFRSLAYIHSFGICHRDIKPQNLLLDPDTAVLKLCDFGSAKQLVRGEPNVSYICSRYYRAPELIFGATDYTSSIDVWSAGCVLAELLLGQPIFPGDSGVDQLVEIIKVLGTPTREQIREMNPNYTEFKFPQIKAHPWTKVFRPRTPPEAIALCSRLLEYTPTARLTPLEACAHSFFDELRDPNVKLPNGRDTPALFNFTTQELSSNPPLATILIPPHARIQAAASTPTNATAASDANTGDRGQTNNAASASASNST

[27] = biological target: Mast/stem cell growth factor receptor Kit (Homo sapiens, UniProt P10721);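 note: KIT entry within a kinase panel assay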
[28] = biological target: Glycogen synthase kinase-3 alpha (Homo sapiens, UniProt P49840);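 note: GSK3A result taken from a broad kinome-wide kinase panel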
[29] = biological target: T1, Receptor-type tyrosine-protein kinase FLT3 (Homo sapiens, UniProt P36888);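 note: FLT3 was tested as one member of a kinome-wide kinase panel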
T1 sequence (P36888 whole entry): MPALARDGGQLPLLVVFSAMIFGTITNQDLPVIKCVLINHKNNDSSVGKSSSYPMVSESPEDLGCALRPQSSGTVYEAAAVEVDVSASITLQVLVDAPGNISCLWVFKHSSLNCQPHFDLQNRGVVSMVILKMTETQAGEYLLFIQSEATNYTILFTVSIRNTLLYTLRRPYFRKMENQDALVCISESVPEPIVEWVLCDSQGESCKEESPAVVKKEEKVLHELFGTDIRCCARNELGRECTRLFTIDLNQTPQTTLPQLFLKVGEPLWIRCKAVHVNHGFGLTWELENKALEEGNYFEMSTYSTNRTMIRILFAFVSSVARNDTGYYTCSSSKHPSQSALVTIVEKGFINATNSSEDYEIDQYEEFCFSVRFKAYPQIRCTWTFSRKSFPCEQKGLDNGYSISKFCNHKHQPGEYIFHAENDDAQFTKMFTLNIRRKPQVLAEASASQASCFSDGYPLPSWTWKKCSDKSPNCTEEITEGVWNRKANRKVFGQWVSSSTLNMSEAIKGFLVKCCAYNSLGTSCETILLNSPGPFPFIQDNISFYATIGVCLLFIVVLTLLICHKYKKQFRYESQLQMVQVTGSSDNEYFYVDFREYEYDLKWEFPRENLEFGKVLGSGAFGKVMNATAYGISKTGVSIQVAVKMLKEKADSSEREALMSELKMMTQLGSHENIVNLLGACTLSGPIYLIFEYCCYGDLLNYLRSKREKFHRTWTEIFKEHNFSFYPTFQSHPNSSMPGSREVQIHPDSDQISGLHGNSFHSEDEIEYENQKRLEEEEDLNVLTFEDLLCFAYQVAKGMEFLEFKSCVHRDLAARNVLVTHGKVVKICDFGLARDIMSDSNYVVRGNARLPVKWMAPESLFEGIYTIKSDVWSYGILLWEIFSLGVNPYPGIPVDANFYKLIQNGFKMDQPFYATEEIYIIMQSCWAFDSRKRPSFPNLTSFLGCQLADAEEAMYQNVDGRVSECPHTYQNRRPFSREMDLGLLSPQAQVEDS

[30] = biological target: Dual specificity protein kinase CLK4 (Homo sapiens, UniProt Q9HAZ1)
[31] = biological target: Serine/threonine-protein kinase N2 (Homo sapiens, UniProt Q16513)

Compound	Ki [1]	Ki [2]	Ki [3]	Ki [4]	Ki [5]	Ki [6]	Ki [7]	Ki [8]	Ki [9]	Ki [10]	Ki [11]	Ki [13]	Ki [14]	Ki (Aurora kinase B)	Ki [15]	Ki [16]	Ki [17]	Ki [18]	Ki [19]	Ki [20]	other results
NC(COc1cncc(-c2cc3ccncc3s2)c1)Cc1c[nH]c2ccccc12 (stereo unspecified)	316 nM (active)	2510 nM (active)	> 5010 nM (inactive)	> 1000 nM (inactive)	25.1 nM (active)	794 nM (active)	> 794 nM (inactive)	316 nM (active)	5010 nM (active)	63.1 nM (active)	> 3980 nM (inactive)	3.98 nM (active)	> 631 nM (inactive)	794 nM (active)	20 nM (active)	10 nM (active)	1000 nM (active)	794 nM (active)	> 1580 nM (inactive)	> 2510 nM (inactive)	Ki [12]: > 3980 nM (inactive); Ki [21]: > 2510 nM (inactive); Ki [22]: > 1580 nM (inactive); Ki (Aurora kinase A): > 6310 nM (inactive); Ki [23]: 79.4 nM (active); Ki [24]: 2510 nM (active); Ki [25]: 12.6 nM (active); Ki [26]: 12.6 nM (active); Ki [27]: 631 nM (active); Ki [28]: 25.1 nM (active); Ki [29]: 251 nM (active)
CN(C)C1CCC(Nc2nc(Cl)cc(-c3c[nH]c4ncccc34)n2)CC1 (stereo unspecified)	> 3980 nM (inactive)	1000 nM (active)	1580 nM (active)	> 2510 nM (inactive)	63.1 nM (active)	79.4 nM (active)	> 6310 nM (inactive)	79.4 nM (active)	50.1 nM (active)	63.1 nM (active)	> 3980 nM (inactive)	39.8 nM (active)	> 3980 nM (inactive)	794 nM (active)	1.26 nM (active)	25.1 nM (active)	1260 nM (active)	1260 nM (active)	1580 nM (active)	501 nM (active)	Ki [30]: 2.51 nM (active); Ki [31]: 10 nM (active); Ki [21]: > 3160 nM (inactive); Ki (Aurora kinase A): > 1580 nM (inactive); Ki [23]: 251 nM (active); Ki [24]: > 3980 nM (inactive); Ki [26]: 1580 nM (active); Ki [27]: > 3980 nM (inactive); Ki [28]: 794 nM (active); Ki [29]: 1580 nM (active)
